In patent US20230025932A1, “NOVEL FUNCTIONALIZED LACTONES AS MODULATORS OF THE 5-HYDROXYTRYPTAMINE RECEPTOR 7 AND THEIR METHOD OF USE” (Temple University-Of The Commonwealth System of Higher …, priority 2019, published 2023):

How the values were obtained:
5-HT7 receptors [1] = molecular target: T1, 5-HT7 receptors (Homo sapiens, UniProt P34969); test: Functional cAMP enzyme fragment complementation assay (HitHunter cAMP), antagonist Kb; format: cell-based; parameters: expressed in transfected cells; settings: cells expressing human 5HT7, antagonist mode with EC70 5-HT
Method: Functional efficacy of the compounds of the disclosure on 5-HT7 serotonin receptors are measured in a cell based cAMP enzyme fragment complementation assay using the HitHunter cAMP assay (DiscoveRx). Cells stably expressing human 5HT7 receptors are plated in 96-well plates at 4000 cells/well, 16-20 hours prior to assay in growth media (Ultraculture medium, 2 mM GlutaMax and G418 1 mg/mL. Serial dilutions of the agonist, 5-hydroxytryptamine (5-HT), are prepared in a final concentration range of 10 μM to 10 nM. Compounds of the disclosure are prepared in 3-fold serial dilutions to obtain a final concentration range of 10 μM to 0.1 nM. Compounds of the disclosure are tested for agonist activity in the absence of 5-HT and antagonist activity in the presence of 5-HT. For the cAMP assay, the protocol is followed according to the instructions provided by the supplier. Briefly, cells are incubated with a compound of the disclosure for 30 minutes at 37° C. prior to addition of EC70 concentration of 5-HT. After an additional 30 minutes, cAMP antibody/cell lysis solution is added (20 μL/well) and incubated for 60 minutes at room temperature. cAMP XS+EA reagent is added (20 μL/well) and incubated for 2 hours at room temperature. Luminescence is read on the Envision Multilabel plate reader.

5-HT7 receptors [2] = molecular target: T1, 5-HT7 receptors; test: Radiolabeled binding ([3H]LSD competition, membrane fractions)

T1 sequence (P34969 whole entry, the tested form may be a part): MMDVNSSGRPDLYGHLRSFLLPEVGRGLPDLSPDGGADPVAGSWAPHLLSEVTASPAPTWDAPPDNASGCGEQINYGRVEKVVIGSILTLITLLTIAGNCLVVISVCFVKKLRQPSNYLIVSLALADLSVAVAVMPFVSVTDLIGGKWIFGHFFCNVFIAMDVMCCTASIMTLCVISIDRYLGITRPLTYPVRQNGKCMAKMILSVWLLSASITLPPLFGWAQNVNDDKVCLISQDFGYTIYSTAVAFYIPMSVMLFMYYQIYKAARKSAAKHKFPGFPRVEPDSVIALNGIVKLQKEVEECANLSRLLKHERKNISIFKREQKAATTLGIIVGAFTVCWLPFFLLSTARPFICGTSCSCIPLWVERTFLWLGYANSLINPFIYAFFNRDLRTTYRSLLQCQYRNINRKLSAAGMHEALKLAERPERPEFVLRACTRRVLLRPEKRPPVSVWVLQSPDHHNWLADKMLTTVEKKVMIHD

Kb (5-HT7 receptors [1]) [nM] | Ki (5-HT7 receptors [2]) [nM] | Compound
10 to 100 |  | CC(=O)NCC(=O)N1CCC2(CC1)C[C@H](CCN1CCN(c3ccc(F)cc3)CC1)OC2=O [Compound 6]
10 to 100 | 50 to 200 | CS(=O)(=O)NCC(=O)N1CCC2(CC1)C[C@H](CCN1CCN(c3cccc(Cl)c3)CC1)OC2=O [Compound 9]
